According to US8247211B2, “Glycopeptide antibiotics” (American Cyanamid Company, priority 2001, dated 2012):
≈ marks a conversion by molar mass, not a printed value. Numbered stars: 1 amine (or outer) side, 2 acyl side, 3 side chain; on linkers, the order of the positions; unused ones are H or OH. Square brackets hold non-standard residues; d marks the D form. Peptide text beside a SMILES is read from it. * marks the point of attachment. ξ: configuration not given here. X1 = N=C1NCC(C(O)C(N[*:1])C(=O)[*:2])N1C1OC(CO)C(O)C(O)C1O; ξEnduracididine(βξ-OH,4'ξ) = N=C1NCC(C(O)C(N)C(=O)O)N1; X2 = OCC1OC(OC2C(CO)OC(*)C(O)C2O)C(O)C(O)C1O; Cha = N[CH](CC1CCCCC1)C(=O)O

Assays:
[1] = Anatomic pathology (heart and kidney histopathology) in mice; type: in vivo, CD-1 mice; conditions: 20 mg/kg intravenously daily for 9 days, microscopic histopathology on day 10
In short: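 Histopathology on H&E-stained, paraffin-embedded sections, subjectively scored (slight, mild, moderate, marked, severe) relative to untreated controls. Dosing: glycopeptide antibiotics 20 mg/kg intravenously once daily ×9 days in 20-day-old CD-1 mice, n=5 per group including vehicle.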

[2] = test system: Escherichia coli; test: In vitro antibacterial evaluation: minimum inhibitory concentration (MIC), broth dilution method; type: cell-based
In short: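 Values are minimum inhibitory concentrations, meaning the smallest antibiotic concentration that stops growth of the organism. They come from broth dilution in Muller-Hinton II […] per NCCLS guidance (M7-A2), using 5×10^5 CFU/mL and concentrations from 64 to 0.06 μg/mL.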

[3] = test system: Enterococcus sp.; test: as above; type: cell-based
In short: (§1)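 An MIC is reported for each organism as the least concentration giving inhibition, using broth dilution over 64-0.06 μg/mL with a 5×10^5 CFU/mL inoculum.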

[4] = test system: Streptococcus sp.; test: as above; type: cell-based; conditions: 18 hours at 35° C.
In short: as §1

[5] = test system: Staphylococcus sp.; test: as above; type: cell-based; conditions: 18 hours at 35° C.
In short: as §1

[6] = test system: Escherichia coli; test: as above; type: cell-based; remark: listed apart in the source
[7] = test system: Staphylococcus aureus-SMITH (GC 4543); test: Acute lethal infection in mice (ED50); type: in vivo; conditions: female CD-1 mice, intraperitoneal challenge, intravenous dose 30 min. after infection, 7 day survival ratios
In short: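 Groups of five female CD-1 mice per dose got intravenous antibiotic in saline or 5% dextrose half an hour after intraperitoneal infection sufficient to kill controls within 24-48 hr. Seven-day survival data from three experiments were combined to derive ED50.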

[8] = type: in vivo; conditions: mice, 20 mg/kg intravenously daily for 9 days, serum on day 10
Protocol: 20-day-old CD-1 mice were divided into a vehicle control group (5 mice) and a treatment group (5 mice). Samples of glycopeptide antibiotics were administered at 20 mg/kg intravenously daily for 9 days. Animals were necropsied on day 10 Sera were analyzed for BUN (blood urea nitrogen), creatinine, AST (aspartic aminotransferase), and ALT (alanine aminotransferase) by routine, standard, automated methods using an Hitachi 747 chemistry analyzer.

## N=C1NCC(C(O)C2NC(=O)C(Cc3ccc(OC4OC(CO)C(OC5OC(CO)C(O)C(O)C5O)C(O)C4O)cc3)NC(=O)C(CC3CCCCC3)NC(=O)CNC(=O)C(CO)NC(=O)C(C(O)C3CNC(=N)N3C3OC(CO)C(O)C(O)C3O)NC2=O)N1 (stereo not drawn) [Example 263, Cyclo[3-cyclohexylalanyl-O-(4-O-hexopyranosylhexopyranosyl)tyrosyl-3-(2-iminoimidazolidin-4-yl)seryl-3-(3-hexopyranosyl-2-iminoimidazolidin-4-yl)serylserylglycyl]] (cyclo(G[Cha]Y(X2)[ξEnduracididine(βξ-OH,4'ξ)][X1]S); configuration not given here)
[1]
  Anatomical Pathology (Day 10), Heart: +
  Anatomical Pathology (Day 10), Kidney: ++
[2]; Escherichia coli (GC 4559)
  MIC Escherichia coli (GC 4559): >64 µg/mL
[2]; Escherichia coli (GC 4560)
  MIC Escherichia coli (GC 4560): 16 µg/mL (≈ 12.4 µM)
[3]; Enterococcus avium (GC 4558)
  MIC Enterococcus avium (GC 4558): >64 µg/mL
[3]; Enterococcus faecalis (ATCC 29212)
  MIC Enterococcus faecalis (ATCC 29212): >64 µg/mL
[3]; Enterococcus faecalis (GC 2242), 18 hours at 35° C.
  MIC Enterococcus faecalis (GC 2242): >64 µg/mL
[3]; Enterococcus faecalis (GC 4552), 18 hours at 35° C.
  MIC Enterococcus faecalis (GC 4552): >64 µg/mL
[3]; Enterococcus faecalis (GC 4553)
  MIC Enterococcus faecalis (GC 4553): >64 µg/mL
[3]; Enterococcus faecalis (GC 4554)
  MIC Enterococcus faecalis (GC 4554): >64 µg/mL
[3]; Enterococcus faecium (GC 2243)
  MIC Enterococcus faecium (GC 2243): >64 µg/mL
[3]; Enterococcus faecium (GC 4556)
  MIC Enterococcus faecium (GC 4556): >64 µg/mL
[3]; Enterococcus faecium (GC 4557)
  MIC Enterococcus faecium (GC 4557): 32 µg/mL (≈ 24.9 µM)
[4]; Streptococcus agalactiae (GC 4564)
  MIC Streptococcus agalactiae (GC 4564): 32 µg/mL (≈ 24.9 µM)
[4]; Streptococcus pyogenes (ID-3187)
  MIC Streptococcus pyogenes (ID-3187): 32 µg/mL (≈ 24.9 µM)
[5]
  MIC Coagulase Negative Staphylococcus (GC 4547): 64 µg/mL (≈ 49.7 µM)
  MIC Coagulase Negative Staphylococcus (GC 4548): 32 µg/mL (≈ 24.9 µM)
  MIC Coagulase Negative Staphylococcus (GC 4549): 16 µg/mL (≈ 12.4 µM)
  MIC Coagulase Negative Staphylococcus (GC 4551): 64 µg/mL (≈ 49.7 µM)
  MIC Staphylococcus aureus (ATCC 29213): 64 µg/mL (≈ 49.7 µM)
  MIC Staphylococcus aureus (GC 1131): 64 µg/mL (≈ 49.7 µM)
  MIC Staphylococcus aureus (GC 4541): 64 µg/mL (≈ 49.7 µM)
  MIC Staphylococcus aureus (GC 4542): 64 µg/mL (≈ 49.7 µM)
  MIC Staphylococcus aureus (GC 4544): >64 µg/mL
  MIC Staphylococcus aureus (GC 4545): 64 µg/mL (≈ 49.7 µM)
  MIC Staphylococcus aureus-SMITH (GC 4543): 32 µg/mL (≈ 24.9 µM)
  MIC Staphylococcus haemolyticus (GC 4546): 32 µg/mL (≈ 24.9 µM)
[5]; broth dilution
  MIC Coagulase Negative Staphylococcus (GC 4547): 64 µg/mL (≈ 49.7 µM)
  MIC Coagulase Negative Staphylococcus (GC 4548): 32 µg/mL (≈ 24.9 µM)
  MIC Coagulase Negative Staphylococcus (GC 4549): 16 µg/mL (≈ 12.4 µM)
  MIC Coagulase Negative Staphylococcus (GC 4551): 64 µg/mL (≈ 49.7 µM)
  MIC Staphylococcus aureus (ATCC 29213): 64 µg/mL (≈ 49.7 µM)
  MIC Staphylococcus aureus (GC 1131): 64 µg/mL (≈ 49.7 µM)
  MIC Staphylococcus aureus (GC 4541): 64 µg/mL (≈ 49.7 µM)
  MIC Staphylococcus aureus (GC 4542): 64 µg/mL (≈ 49.7 µM)
  MIC Staphylococcus aureus (GC 4544): >64 µg/mL
  MIC Staphylococcus aureus (GC 4545): 64 µg/mL (≈ 49.7 µM)
  MIC Staphylococcus aureus-SMITH (GC 4543): 32 µg/mL (≈ 24.9 µM)
  MIC Staphylococcus haemolyticus (GC 4546): 32 µg/mL (≈ 24.9 µM)
[6]
  MIC Escherichia coli (ATCC 25922): >64 µg/mL
[7]
  median effective dose (ED50), Staphylococcus aureus-SMITH (GC 4543): >8

## CC(c1ccccc1)C1NC(=O)CNC(=O)C(CO)NC(=O)C(CC2CNC(=N)N2C2OC(CO)C(O)C(O)C2O)NC(=O)C(CC2CNC(=N)N2)NC(=O)C(Cc2ccc(OC3OC(CO)C(OC4OC(CO)C(O)C(O)C4O)C(O)C3O)cc2)NC1=O (stereo not drawn) [Example 277a, Cyclo[3-(2-iminoimidazolidin-4-yl)alanyl-3-(3-hexopyranosyl-2-iminoimidazolidin-4-yl)-alanylserylglycyl-β-methylphenylalanyl-O-(4-O-hexopyranosylhexopyranosyl]tyrosyl]]
[8]
  Clinical Chemistry (Day 10) % of Control, BUN: +110%
[1]
  Anatomical Pathology (Day 10), Heart: 0
  Anatomical Pathology (Day 10), Kidney: ++
[7]
  median effective dose (ED50), Staphylococcus aureus-SMITH (GC 4543): >8

## CC(C)CC(=O)OCC1OC(OC2C(CO)OC(Oc3ccc(CC4NC(=O)C(C(C)c5ccccc5)NC(=O)CNC(=O)C(CO)NC(=O)C(CC5CNC(=N)N5C5OC(CO)C(O)C(O)C5O)NC(=O)C(CC5CNC(=N)N5)NC4=O)cc3)C(O)C2O)C(O)C(O)C1O (stereo not shown) [Example 277c]
[8]
  Clinical Chemistry (Day 10) % of Control, AST: +253%
